Laboratory results taken from patent publication US20190008870A1, “COMPOSITIONS AND METHODS FOR LIPID METABOLISM DISORDER” (JANSFAT BIOTECHNOLOGY CO., LTD., priority 2016, published 2019).

Tests used:
mice fed with HFD = assay: Serum and liver lipid levels of mice fed with HFD; assay type: in vivo
Method: (§1) During the 2 month experiments, mice fasted for one night before the experiment was changed from a standard diet (STD) to an HFD and then the mice were randomly divided into 13 groups, including a protection group, 2 control and 10 treatment groups. Six mice were used in each group. […] Liver from the protection group supplemented with KMUP-1 HCl (1 mg/kg/day) were used to determine the HMG CoA reductase expression. Each group of mice had free access to drinking water from week 1 to week 14. Tap water was used to normalize mineral nutrition.
Within 2 months, the 3 day food intake average for each animal was measured. The weight gain and plasma lipid levels of each group were determined and compared to the non-treatment control group. […] Agents used in the assays were obtained from Merck & Co. (Kenilworth, N.J., U.S.A.). Triglyceride (TG), total cholesterol, HDL cholesterol and LDL cholesterol in mouse serum were measured by methods used in the clinic. To measure the hepatic Triglyceride, isolated liver were cut into small chips.

[1] = biological target: T1, Human recombinant HMG CoA reductase (Homo sapiens, UniProt P04035); assay: HMG CoA reductase activity and [14C]mevalonate formation; assay type: biochemical
T1 construct: purchased Sigma-Aldrich H7039; host or cells: E. coli
T1 sequence (P04035 426-888 limits assumed): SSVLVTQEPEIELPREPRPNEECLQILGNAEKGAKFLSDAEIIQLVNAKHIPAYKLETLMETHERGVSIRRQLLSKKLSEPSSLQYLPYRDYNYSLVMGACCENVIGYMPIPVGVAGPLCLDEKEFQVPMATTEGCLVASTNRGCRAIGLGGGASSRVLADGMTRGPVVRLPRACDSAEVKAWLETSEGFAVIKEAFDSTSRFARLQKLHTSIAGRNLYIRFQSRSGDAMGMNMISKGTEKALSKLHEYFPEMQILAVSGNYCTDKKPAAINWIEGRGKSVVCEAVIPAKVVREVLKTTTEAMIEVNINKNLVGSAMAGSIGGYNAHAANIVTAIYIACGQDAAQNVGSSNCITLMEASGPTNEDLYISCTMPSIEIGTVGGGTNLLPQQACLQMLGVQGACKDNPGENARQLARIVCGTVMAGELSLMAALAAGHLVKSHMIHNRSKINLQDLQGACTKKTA
Method: Human recombinant HMG CoA reductase expressed in E. coli (H7039, Sigma-Aldrich, MO, U.S.A.) was used. Human recombinant HMG-CoA reductase, examined by SDS-PAGE to be ≥90% in purity, 2-8 units/mg protein in activity and ˜76 kDa in molecular weight (H7039, Sigma-Aldrich, St. Louis, Mo. U.S.A.), was used for determining the formation of [^14C]mevalonate. KMUP-1 and targeted drugs were pre-incubated with 35 ng/ml enzyme in phosphate buffer pH 7.5 for 15 minutes at 37° C. The reaction was initiated by the addition of 2.5 μM [^14C]HMG-CoA for another 20 minutes incubation period and terminated by further addition of 1 N HCl. An aliquot was removed by column and counted to determine the amount of [^14C]mevalonate formed (Ricera® Co. Ltd., Taipei, Taiwan).

HMG CoA reductase [2] = assay: HMG CoA reductase expression in HepG2 cells (Western blotting); assay type: cell-based; conditions: for HMGR (%): 24 hours, CTL 100; for HMG CoA expression: Mevalonate (100 μM) + drug (10^−5 M), Control 100
Method: The HepG2 hepatoma cell line was purchased from the American Type Culture Collection (ATCC, Manassas, Va., U.S.A.). Cells were cultured in Dulbecco's Modified Eagle's Medium (DMEM). The culture media was supplemented with 5% heat-inactivated FBS, penicillin (100 U/mL) and streptomycin (100 μg/mL). Cells were grown in a humidified atmosphere containing 5% CO2 at 37° C., in which the oxygen tension in the incubator was held at 140 mmHg (20% O2, v/v; normoxic conditions). […] Then the targeted drugs solution was incubated with the cells for 24 hours, followed by protein extraction. The targeted drugs were added to the […].
HepG2 cells were treated with various concentrations of targeted drugs for 24 hours. Reactions were terminated by washing twice with cold PBS, and the cells were then harvested. Proteins in the whole-cell lysate were homogenized in an ice-cold lysis buffer and a protease inhibitor (Sigma-Aldrich, St. Louis, Mo., U.S.A.). The homogenate was centrifuged at 90,000×g for 15 minutes at 4° C., and supernatant was recovered as the total cellular protein. Cytosolic and membrane fractions of HepG2 cells were prepared using a CNM (Cytosol Nuclear Membrane) compartmental protein extraction kit (BioChain Institute Inc., Hayward, Calif., U.S.A.) according to the manufacturer's instructions. All of the fractionated protein solutions were stored at −80° C. until analysis. To measure the expression levels of proteins by drugs, the total cell protein was extracted after incubation with treatments for 24 hours and then Western blotting analysis was performed as described previously.

HMG CoA reductase [3] = assay: HFD-induced HMG CoA reductase expression in liver; assay type: in vivo, mice
Method: as §1, with “In the experiment, C57BL/6J male mice (21-22 g), after fasting, were fed an HFD as a model of hyperlipidemia for 8 weeks. During” for “During”
(§2) For the expression of SR-B1, HMGR, PPARγ and ROCK II, isolated liver tissues were cut into small chips and placed into an extraction buffer (Tris 10 mM, pH 7.0, NaCl 140 mM, PMSF 2 mM, DTT 5 mM, NP-40 0.5%, pepstatin A 0.05 mM and leupeptin 0.2 mM) for hepatic protein extraction, and centrifuged at 20,000×g for 30 minutes. The obtained protein extract was boiled to a ratio of 4:1 with a sample buffer (Tris 100 mM, pH 6.8, glycerol 20%, SDS 4% and bromophenol blue 0.2%). Electrophoresis was performed using 10% SDS-polyacrylamide gel (1 hour, 100 V, 40 mA, 20 μg protein per lane).
(§3) Separated proteins, after 3 repeated centrifugations to discard up-layer tissue lipid in purity, were transferred to PVDF membranes treated with 5% fat-free milk powder to block the nonspecific IgGs (90 minutes, 100 V) and incubated for 1 hour with specific protein antibody. The blot was then incubated with anti-mouse or anti-goat IgG linked to alkaline phosphatase (1:1000) for 1 hour.

ROCK II = assay: HFD-induced ROCK II expression in liver; assay type: in vivo, mice; conditions: for ROCK II: HFD mice, CTL 100
Method: as §1, with “In the experiment, C57BL/6J male mice (21-22 g), after fasting, were fed an HFD as a model of hyperlipidemia for 8 weeks. During” for “During”
as §2, §3

[4] = Simva 5 mg/kg, CTL 100 (Table 9)

For Cn1c(=O)c2c(ncn2CCN2CCN(c3ccccc3Cl)CC2)n(C)c1=O [KMUP-1, 7-[2-[4-(2-chlorophenyl)piperazinyl]ethyl]-1,3-dimethylxanthine], the HDL cholesterol (mice fed with HFD; 2.5 mg/kg p.o.) was 103.6 ± 4.2 mg/dL, the LDL cholesterol (mice fed with HFD; 2.5 mg/kg p.o.) was 14.2 ± 1.4 mg/dL and the “TG in serum (Triacylglycerol)” value (mice fed with HFD; 2.5 mg/kg p.o.) was 74.5 ± 5.1 mg/dL. The TG of liver (mice fed with HFD; 2.5 mg/kg p.o.) was 28.4 ± 3.6 mg/dL, the “Tot. chol. (total cholesterol)” value (mice fed with HFD; 2.5 mg/kg p.o.) was 133.0 ± 5.1 mg/dL and the HDL cholesterol (mice fed with HFD; 5 mg/kg p.o.) was 118.3 ± 5.7 mg/dL. The LDL cholesterol (mice fed with HFD; 5 mg/kg p.o.) was 14.2 ± 2.2 mg/dL, the “TG in serum (Triacylglycerol)” value (mice fed with HFD; 5 mg/kg p.o.) was 72.7 ± 4.7 mg/dL and the TG of liver (mice fed with HFD; 5 mg/kg p.o.) was 26.12 ± 3.1 mg/dL. The “Tot. chol. (total cholesterol)” value (mice fed with HFD; 5 mg/kg p.o.) was 125.5 ± 9.8 mg/dL, the HDL chol. (mice fed with HFD; Dose 2.5 mg/kg (Table 2)) was 103.6 ± 4.2 mg/dL and the LDL chol. (mice fed with HFD; Dose 2.5 mg/kg (Table 2)) was 14.2 ± 1.4 mg/dL. It also gave a TG (mice fed with HFD; Dose 2.5 mg/kg (Table 2)) of 74.5 ± 5.1 mg/dL, a Tot. chol. (mice fed with HFD; Dose 2.5 mg/kg (Table 2)) of 133 ± 5.1 mg/dL and an HDL chol. (mice fed with HFD; Dose 5 mg/kg (Table 2)) of 118.3 ± 5.7 mg/dL. For the same compound, the LDL chol. (mice fed with HFD; Dose 5 mg/kg (Table 2)) was 14.2 ± 2.2 mg/dL, the TG (mice fed with HFD; Dose 5 mg/kg (Table 2)) was 72.67 ± 4.7 mg/dL and the Tot. chol. (mice fed with HFD; Dose 5 mg/kg (Table 2)) was 125.5 ± 9.8 mg/dL. The HFD-induced hypercholesterolemia (mice fed with HFD; supplementation) was “significantly improved”, the “[14C]mevalonate formation” value ([1]; 10 μM) was “could not reduce” and the “HMGR (%)” value (HMG CoA reductase [2]; 10^−5 M) was 270%. The “HMGR (%)” value (HMG CoA reductase [2]; 10^−6 M) was 220%, the “HMGR (%)” value (HMG CoA reductase [2]; 10^−7 M) was 210% and the “HMGR (%)” value (HMG CoA reductase [2]; 10^−8 M) was 125%. The “HMGR (%)” value (HMG CoA reductase [2]; 10^−9 M) was 120%, the “HMG CoA expression” value (HMG CoA reductase [2]) was 62% and the HMGR (HMG CoA reductase [3]; HFD mice, 1 mg/kg, CTL 100) was 43%. For the same compound, the HMGR (HMG CoA reductase [3]; HFD mice, 2.5 mg/kg, CTL 100) was 150%, the HMGR (HMG CoA reductase [3]; HFD mice, 5 mg/kg, CTL 100) was 140% and the “ROCK II” value (ROCK II; 1 mg/kg) was 30%. The “ROCK II” value (ROCK II; 2.5 mg/kg) was 25% and the “ROCK II” value (ROCK II; 5 mg/kg) was 10%.

Compound CCC(C)(C)C(=O)O[C@H]1C[C@@H](C)C=C2C=C[C@H](C)[C@H](CC[C@@H]3C[C@@H](O)CC(=O)O3)[C@H]21 [Simva, Simvastatin, reference compound] has an HDL chol. (mice fed with HFD; Dose 5 mg/kg (Table 2)) of 108.4 ± 1.3 mg/dL, an LDL chol. (mice fed with HFD; Dose 5 mg/kg (Table 2)) of 17.3 ± 1.4 mg/dL and a TG (mice fed with HFD; Dose 5 mg/kg (Table 2)) of 81.2 ± 4.4 mg/dL. The Tot. chol. (mice fed with HFD; Dose 5 mg/kg (Table 2)) was 129.7 ± 1.4 mg/dL, the “inhibition of [14C]mevalonate formation” value ([1]; compared to the vehicle group) was 86.6±4.2% and the “HMGR (%)” value (HMG CoA reductase [2]; 10^−5 M) was 280%. For the same compound, the “HMGR (%)” value (HMG CoA reductase [2]; 10^−8 M) was 152%, the “HMGR (%)” value (HMG CoA reductase [2]; 10^−9 M) was 150% and the “HMG CoA expression” value (HMG CoA reductase [2]) was 50%. It also gave an HMGR (HMG CoA reductase [3]; [4]) of 100% and an ROCKII (ROCK II; [4]) of 43%.
